Laboratory results as given in ChEMBL document CHEMBL3352389, “Evaluation of class I HDAC isoform selectivity of largazole analogues” (Bioorg Med Chem Lett, 2014).

Key:
[1] = molecular target: Histone deacetylase 1 (Homo sapiens, UniProt Q13547); assay: Inhibition of HDAC1 (unknown origin) incubated at 37 degC for 30 mins
[2] = molecular target: Histone deacetylase 2 (Homo sapiens, UniProt Q92769); assay: Inhibition of HDAC2 (unknown origin) incubated at 37 degC for 30 mins
[3] = molecular target: Histone deacetylase 3 (Homo sapiens, UniProt O15379); assay: Inhibition of HDAC3 (unknown origin) incubated at 37 degC for 30 mins
[4] = molecular target: T1, Histone deacetylase 8 (Homo sapiens, UniProt Q9BY41); assay: Inhibition of HDAC8 (unknown origin) incubated at 37 degC for 30 mins
T1 sequence (Q9BY41 whole entry): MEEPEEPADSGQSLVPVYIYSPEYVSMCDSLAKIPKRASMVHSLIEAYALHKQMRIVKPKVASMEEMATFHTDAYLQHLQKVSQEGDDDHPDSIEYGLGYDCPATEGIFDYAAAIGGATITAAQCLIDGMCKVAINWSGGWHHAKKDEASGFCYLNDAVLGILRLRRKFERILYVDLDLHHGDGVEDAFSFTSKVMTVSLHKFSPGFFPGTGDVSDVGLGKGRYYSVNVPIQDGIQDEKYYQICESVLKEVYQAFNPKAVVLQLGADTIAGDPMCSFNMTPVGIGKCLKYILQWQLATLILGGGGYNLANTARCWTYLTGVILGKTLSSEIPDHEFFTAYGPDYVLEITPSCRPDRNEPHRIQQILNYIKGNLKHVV

Sequence of Histone deacetylase 1 (Q13547 whole entry): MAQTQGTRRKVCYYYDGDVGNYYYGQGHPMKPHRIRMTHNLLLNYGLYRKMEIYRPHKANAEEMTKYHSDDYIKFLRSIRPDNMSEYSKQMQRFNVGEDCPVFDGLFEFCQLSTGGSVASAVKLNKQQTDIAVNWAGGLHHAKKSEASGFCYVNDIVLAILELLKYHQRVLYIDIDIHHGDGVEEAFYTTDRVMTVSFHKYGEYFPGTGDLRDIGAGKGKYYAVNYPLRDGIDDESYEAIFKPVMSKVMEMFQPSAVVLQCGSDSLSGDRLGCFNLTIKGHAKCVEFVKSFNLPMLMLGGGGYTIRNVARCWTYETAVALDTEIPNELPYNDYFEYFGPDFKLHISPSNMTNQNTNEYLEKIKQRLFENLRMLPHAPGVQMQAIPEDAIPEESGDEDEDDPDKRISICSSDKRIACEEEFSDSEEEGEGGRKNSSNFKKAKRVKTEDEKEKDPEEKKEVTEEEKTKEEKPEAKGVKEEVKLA
Sequence of Histone deacetylase 2 (Q92769 whole entry): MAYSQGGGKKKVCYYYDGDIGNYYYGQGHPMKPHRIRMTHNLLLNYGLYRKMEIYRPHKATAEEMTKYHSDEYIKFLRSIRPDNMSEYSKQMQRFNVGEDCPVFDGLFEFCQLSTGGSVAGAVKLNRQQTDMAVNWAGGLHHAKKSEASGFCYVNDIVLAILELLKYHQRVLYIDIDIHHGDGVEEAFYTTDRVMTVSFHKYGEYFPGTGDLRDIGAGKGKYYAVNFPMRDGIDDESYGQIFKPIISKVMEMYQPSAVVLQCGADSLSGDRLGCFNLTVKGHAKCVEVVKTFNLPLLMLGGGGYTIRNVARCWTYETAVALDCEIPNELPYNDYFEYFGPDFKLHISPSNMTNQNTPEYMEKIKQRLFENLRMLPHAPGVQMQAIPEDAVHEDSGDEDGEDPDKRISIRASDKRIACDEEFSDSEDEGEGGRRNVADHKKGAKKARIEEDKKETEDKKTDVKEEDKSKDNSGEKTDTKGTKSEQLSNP
Sequence of Histone deacetylase 3 (O15379 whole entry): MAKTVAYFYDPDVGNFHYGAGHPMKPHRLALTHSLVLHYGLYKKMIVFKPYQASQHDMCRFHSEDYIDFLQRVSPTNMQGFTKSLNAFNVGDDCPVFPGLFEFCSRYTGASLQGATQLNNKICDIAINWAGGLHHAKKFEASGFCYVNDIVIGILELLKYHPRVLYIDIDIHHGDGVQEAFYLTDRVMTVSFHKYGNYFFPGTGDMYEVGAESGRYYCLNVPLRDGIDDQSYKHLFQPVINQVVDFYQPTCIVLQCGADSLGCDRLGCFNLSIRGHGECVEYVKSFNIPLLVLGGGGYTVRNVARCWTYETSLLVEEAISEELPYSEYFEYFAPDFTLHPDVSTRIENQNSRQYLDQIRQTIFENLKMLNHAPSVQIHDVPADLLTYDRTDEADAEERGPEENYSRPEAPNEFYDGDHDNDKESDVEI

| Compound | IC50 [1] | IC50 [2] | IC50 [3] | IC50 [4] | IC50 ([4]; read-out: IC50) |
| --- | --- | --- | --- | --- | --- |
| C[C@@]12CSC(=N1)c1csc(n1)CNC(=O)C[C@@H](/C=C/CCS)OC(=O)[C@H](CCCN)NC2=O | 3.3 nM | 6.3 nM | 6 nM | Not Active | – |
| CC(C)(C)OC(=O)NCCC[C@@H]1NC(=O)[C@]2(C)CSC(=N2)c2csc(n2)CNC(=O)C[C@@H](/C=C/CCS)OC1=O | 0.96 nM | 1.4 nM | 1.8 nM | – | 790 nM |
| C[C@@]12CSC(=N1)c1csc(n1)CNC(=O)C[C@@H](/C=C/CCS)OC(=O)[C@H](Cc1ccccc1)NC2=O | 0.29 nM | 1.7 nM | 0.68 nM | Not Active | – |
| C[C@@]12CSC(=N1)c1csc(n1)CNC(=O)C[C@@H](/C=C/CCS)OC(=O)[C@H](Cc1ccc(O)cc1)NC2=O | 0.21 nM | 1.1 nM | 0.38 nM | Not Active | – |
| CC(C)(C)OC(=O)n1cnc(C[C@@H]2NC(=O)[C@]3(C)CSC(=N3)c3csc(n3)CNC(=O)C[C@@H](/C=C/CCS)OC2=O)c1 | 0.62 nM | – | – | – | 540 nM |
| CC(C)(C)OC(=O)NCC[C@@H]1NC(=O)[C@]2(C)CSC(=N2)c2csc(n2)CNC(=O)C[C@@H](/C=C/CCS)OC1=O | 2.3 nM | 3.1 nM | 4.2 nM | Not Active | – |

Further lines, results first:

| IC50 [1] | IC50 [2] | IC50 [3] | IC50 [4] | IC50 ([4]; read-out: IC50) | Compound |
| --- | --- | --- | --- | --- | --- |
| 0.2 nM | 1.4 nM | 1.1 nM | Not Active | – | C[C@@]12CSC(=N1)c1csc(n1)CNC(=O)C[C@@H](/C=C/CCS)OC(=O)[C@H](Cc1c[nH]cn1)NC2=O |
| 5.5 nM | 21 nM | 7.8 nM | Not Active | – | C[C@@]12CSC(=N1)c1csc(n1)CNC(=O)C[C@@H](/C=C/CCS)OC(=O)[C@H](CCN)NC2=O |
| 39 nM | 150 nM | 100 nM | Not Active | – | C[C@@]12CSC(=N1)c1csc(n1)CNC(=O)C[C@@H](/C=C/CCS)OC(=O)[C@H](CC(=O)O)NC2=O |
